SMILES strings stand for the structures. Where “and” joins values, the source holds several entries; their conditions need not be identical. Identical values can stand only once.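 Assay format: 96-well plates, 48-hour exposure. GI50 marks 50% less growth. TGI denotes the concentration required for complete inhibition of growth.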 Some results are limits rather than exact numbers.

Among the test systems are SK-MEL-2 melanoma; NCI-H460 lung; KM12 colon; OVCAR-5 ovarian; ACHN renal; UACC-257 melanoma; HCC-2998 colon; OVCAR-8 ovarian; HL-60(TB) leukemia; HCT-15 colon.
Holding throughout (assay): NCI-60 cell line screen, 48 h

With `CC(=O)[CH-]C(=O)c1ccccc1.CC(=O)[CH-]C(=O)c1ccccc1.COc1cccc([O-])c1[O-].[Ti+4]`, the GI50 in the test on SK-MEL-2 melanoma is 24.8 µM; in the test with NCI-H460 lung, 52 µM; in the test with KM12 colon, 33.4 µM; in the test on OVCAR-5 ovarian it was above 100 µM; in the test on ACHN renal, 94.9 µM; in the test on UACC-257 melanoma it was above 100 µM. The GI50 is 90.2 µM in the test on HCC-2998 colon, 42.4 µM in the test with OVCAR-8 ovarian, 20.3 µM with HL-60(TB) leukemia and 50.2 µM in the test with HCT-15 colon. For the same molecule, the TGI in the test on SK-MEL-2 melanoma is 62.4 µM; with NCI-H460 lung it was above 100 µM; in the test with KM12 colon, above 100 µM; in the test on OVCAR-5 ovarian it was above 100 µM; in the test on ACHN renal it was above 100 µM; with UACC-257 melanoma, above 100 µM. The TGI is above 100 µM with HCC-2998 colon, above 100 µM in the test with OVCAR-8 ovarian, 98.2 µM with HL-60(TB) leukemia and above 100 µM in the test on HCT-15 colon.
As to `CC(=O)Nc1ccc(-c2c3nc(c(-c4cc5ccccc5[n+](C)c4)c4ccc([nH]4)c(-c4ccc(NC(C)=O)cc4)c4nc(c(-c5cc6ccccc6[n+](C)c5)c5ccc2[nH]5)C=C4)C=C3)cc1`, the GI50 in the test on SK-MEL-2 melanoma was 15 µM; with NCI-H460 lung it was 13.8 µM; with KM12 colon, 15.1 µM; in the test with OVCAR-5 ovarian, 8.54 µM; in the test on ACHN renal, 10.3 µM; in the test with UACC-257 melanoma, 11.7 µM. In addition, the GI50 with HCC-2998 colon is above 50 µM; in the test on OVCAR-8 ovarian, 15.7 µM; in the test on HL-60(TB) leukemia, 10.1 µM; in the test on HCT-15 colon, above 50 µM. For the same molecule, the TGI in the test with SK-MEL-2 melanoma was above 50 µM; in the test on NCI-H460 lung, above 50 µM; in the test on KM12 colon, above 50 µM; in the test on OVCAR-5 ovarian, above 50 µM; in the test on ACHN renal it was 26.6 µM; with UACC-257 melanoma, 47.6 µM. Besides, the TGI with HCC-2998 colon was above 50 µM; with OVCAR-8 ovarian it was above 50 µM; in the test on HL-60(TB) leukemia it was 29.2 µM; with HCT-15 colon, above 50 µM.
On to `CC1(C)CCC[C@@]2(C)C1C[C@H](O)[C@@]1(C)O[C@@](C)([C@H](O)CO)CCC21` (some centres not stated), for which the TGI was 60 µM in the test with SK-MEL-2 melanoma; above 100 µM in the test on NCI-H460 lung; above 100 µM in the test on KM12 colon; above 100 µM with OVCAR-5 ovarian; 74.9 µM in the test on ACHN renal; above 100 µM in the test with UACC-257 melanoma. In addition, the TGI in the test on HCC-2998 colon was above 100 µM; with OVCAR-8 ovarian it was above 100 µM; with HL-60(TB) leukemia, 48.1 µM; in the test with HCT-15 colon it was above 100 µM.
Turning to `N#CCCN(CCC#N)C(=O)c1cccc(C(=O)N(CCC#N)CCC#N)c1`, the TGI is above 100 µM with SK-MEL-2 melanoma; above 64.8 µM in the test on NCI-H460 lung; above 100 µM in the test with KM12 colon; above 100 µM in the test on OVCAR-5 ovarian; above 100 µM in the test with ACHN renal; above 100 µM in the test with UACC-257 melanoma. Moreover, the TGI in the test with HCC-2998 colon is above 100 µM; in the test with OVCAR-8 ovarian, above 69.1 µM; with HL-60(TB) leukemia, above 73.3 µM; with HCT-15 colon, above 100 µM.
`O=C(/C=C/c1ccccc1)c1c[nH]c2ccccc2c1=O`: the GI50 with SK-MEL-2 melanoma was 2.42 µM; in the test with NCI-H460 lung, 2.06 µM; with KM12 colon, 3.37 µM; with OVCAR-5 ovarian, 3.87 µM; with ACHN renal, 3.01 µM; in the test with UACC-257 melanoma, 3.56 µM. Also, the GI50 is 2.85 µM in the test with HCC-2998 colon, 2.23 µM in the test on OVCAR-8 ovarian, 2.81 µM in the test on HL-60(TB) leukemia and 2.08 µM in the test on HCT-15 colon. In addition, the TGI was determined as 5.72 µM in the test with SK-MEL-2 melanoma; 5.09 µM with NCI-H460 lung; 11 µM in the test on KM12 colon; 17 µM in the test with OVCAR-5 ovarian; 11.7 µM with ACHN renal; 15.1 µM with UACC-257 melanoma. Besides, the TGI in the test on HCC-2998 colon was determined as 9.48 µM; in the test on OVCAR-8 ovarian, 6.82 µM; in the test with HL-60(TB) leukemia it was 10.6 µM; in the test on HCT-15 colon it was 13.2 µM.
As to `COc1ccc2c(c1)[C@]1(C[C@H]1c1ccc3c(/C=C/c4ccc(CN5C[C@@H](C)O[C@@H](C)C5)cc4)n[nH]c3c1)C(=O)N2`, the GI50 in the test with SK-MEL-2 melanoma was 8.28 µM; with NCI-H460 lung, 1.6 µM; in the test with KM12 colon, 0.0143 µM; in the test with OVCAR-5 ovarian it was 8.26 µM; in the test with ACHN renal, 2.86 µM; in the test on UACC-257 melanoma it was 6.8 µM. In addition, the GI50 with HCC-2998 colon was 4.18 µM; in the test on OVCAR-8 ovarian, 5.06 µM; in the test on HL-60(TB) leukemia it was 2.69 µM; in the test on HCT-15 colon, 3.34 µM. Moreover, the TGI in the test on SK-MEL-2 melanoma was above 100 µM; in the test with NCI-H460 lung, 12.1 µM; with KM12 colon it was above 73.6 µM; in the test with OVCAR-5 ovarian, above 100 µM; in the test with ACHN renal it was above 100 µM; with UACC-257 melanoma, above 60.5 µM. In addition, the TGI is above 59.7 µM in the test on HCC-2998 colon, 51.1 µM in the test with OVCAR-8 ovarian, 13.7 µM in the test on HL-60(TB) leukemia and above 100 µM in the test on HCT-15 colon.
Consider `Cn1cc(C2=C(c3c4n(c5ccccc35)CCCC4)C(=O)NC2=O)c2ccccc21`, for which the GI50 in the test with SK-MEL-2 melanoma was 10.1 µM; with NCI-H460 lung, 9.9 µM; in the test with KM12 colon it was 9.71 µM; in the test with OVCAR-5 ovarian, above 25 µM; in the test on ACHN renal, 20.4 µM; with UACC-257 melanoma it was above 21.7 µM. Also, the GI50 was above 23.8 µM with HCC-2998 colon, above 18.4 µM in the test with OVCAR-8 ovarian, 9.59 µM in the test with HL-60(TB) leukemia and 11 µM in the test with HCT-15 colon. In addition, the TGI in the test with SK-MEL-2 melanoma, in the test on NCI-H460 lung, with KM12 colon, in the test with OVCAR-5 ovarian, in the test with ACHN renal and in the test with UACC-257 melanoma was above 25 µM in each case. The TGI in the test with HCC-2998 colon, with OVCAR-8 ovarian, in the test on HL-60(TB) leukemia and in the test with HCT-15 colon was above 25 µM in each case.
`Cc1ccc(NC(=O)CC/C(CC(=O)C(C)(C)C)=N/NC(=O)C(N)=O)cc1C`: the TGI in the test on SK-MEL-2 melanoma, in the test on NCI-H460 lung, in the test on KM12 colon, in the test with OVCAR-5 ovarian, with ACHN renal and with UACC-257 melanoma was above 100 µM throughout. The TGI in the test with HCC-2998 colon, in the test on OVCAR-8 ovarian, with HL-60(TB) leukemia and in the test with HCT-15 colon was above 100 µM in each case.
On to `Nc1ncnc2c1ncn2C1OC(CSC(F)(F)F)C(O)C1O` (configuration not stated), for which the TGI in the test with SK-MEL-2 melanoma, with NCI-H460 lung, with KM12 colon, with OVCAR-5 ovarian, with ACHN renal and in the test with UACC-257 melanoma was above 100 µM each time. Further, the TGI in the test with HCC-2998 colon, in the test on OVCAR-8 ovarian, with HL-60(TB) leukemia and with HCT-15 colon was above 100 µM in each case.
Consider `N#CNC(N)=NCCO`, for which the TGI with SK-MEL-2 melanoma, in the test with NCI-H460 lung, with KM12 colon, in the test with OVCAR-5 ovarian, in the test with ACHN renal and with UACC-257 melanoma was above 100 µM throughout. Further, the TGI in the test on HCC-2998 colon, with OVCAR-8 ovarian, in the test on HL-60(TB) leukemia and with HCT-15 colon was above 100 µM each time.
Take `COC(=O)CCC(C)[C@H]1CCC2C3C(C[C@H](OC(C)=O)[C@@]21C)[C@@]1(C)CCC2(C[C@H]1C[C@H]3OC(C)=O)OOC1(CCC(C)CC1)OO2` (some centres not stated): the GI50 with SK-MEL-2 melanoma was 21.9 µM and 64.9 µM; in the test with NCI-H460 lung, 4.22 µM and 18.7 µM; in the test on KM12 colon it was 4.03 µM and 38.7 µM; in the test on UACC-257 melanoma it was 8.83 µM and 25.2 µM; in the test on OVCAR-8 ovarian, 8.64 µM and 26.2 µM; in the test with HL-60(TB) leukemia it was 3.36 µM and 14.9 µM. Further, in the test on HCT-15 colon, the GI50 was 8.89 µM and 30.9 µM. The TGI was above 100 µM in the test on SK-MEL-2 melanoma; above 100 µM with NCI-H460 lung; above 100 µM with KM12 colon; above 100 µM with OVCAR-5 ovarian; 61.7 µM and > 100 µM in the test on ACHN renal; above 100 µM in the test on UACC-257 melanoma. Besides, the TGI in the test on HCC-2998 colon was above 100 µM; with OVCAR-8 ovarian, above 100 µM; in the test on HL-60(TB) leukemia it was 27.7 µM and > 100 µM; in the test with HCT-15 colon, above 100 µM.
Take `NC(C/[N+]([O-])=N/O)C(=O)O` (configuration not stated): the GI50 in the test with SK-MEL-2 melanoma is 115 µM; in the test with KM12 colon, 0.543 µM; in the test on ACHN renal, 2.98 µM; with UACC-257 melanoma it was 18 µM and 68.2 µM and 52.5 µM; in the test with HCT-15 colon, 3.65 µM and 6.69 µM and 1.8 µM. The TGI in the test on SK-MEL-2 melanoma is > 100 µM and 359 µM; in the test with NCI-H460 lung, > 78.3 µM and > 100 µM and 223 µM; in the test on KM12 colon, 31.1 µM and > 100 µM and 144 µM; in the test on OVCAR-5 ovarian, > 100 µM and 230 µM; in the test on ACHN renal, above 500 µM; in the test with UACC-257 melanoma, > 100 µM and 456 µM. In addition, the TGI in the test with HCC-2998 colon was > 100 µM and 302 µM; with OVCAR-8 ovarian, > 100 µM and 459 µM; in the test on HL-60(TB) leukemia, > 100 µM and 176 µM; in the test on HCT-15 colon, > 100 µM and 329 µM.

The values above are taken from PubChem BioAssay (NCI).
